Values of other authors, collected in patent US20050226974A1 (priority 2004, published 2005).

What was measured:
[1] = test system: common food spoilage yeasts and moulds; conditions: most strains of common food spoilage yeasts and moulds
yeasts = conditions: some yeasts

C[C@@H]1C/C=C/C=C/C=C/C=C/[C@H](O[C@@H]2O[C@H](C)[C@@H](O)[C@H](N)[C@@H]2O)C[C@@H]2O[C@](O)(C[C@@H](O)C[C@H]3O[C@@H]3/C=C/C(=O)O1)C[C@H](O)[C@H]2C(=O)O [Natamycin]
solubility dependence on pH: most soluble at high or low pH | maximum solubility (in water): around 40 ppm | concentrations inhibiting most strains [1]: 1-15 ppm | minimal inhibitory concentrations (yeasts): less than 3 ppm
